Assay results from patent publication US20110158924A1, “PHOTO-PROTECTIVE DERMATOLOGICAL FORMULATIONS” (DermaPlus, Inc., priority 2007, published 2011).
Read-outs that look alike come from different tables or passages of the source.

Key:
HEK 293 cells [1] = assay: Cell survival of HEK 293 cells after H2O2 stress treatment (MTT assay); format: cell-based, human; conditions: for viability at 5000 µM: Homo sapiens, read-out: Cell Survival (%); for protection of cell survival against H2O2 exposure (in words): 0.5 mM H2O2, 3 h
Procedure: For stress treatments, HEK 293 cells were grown to about 80% confluence. […] For testing the protective ability of other amino acids, cells were treated for 3 h with 0.5 mM H2O2 in the absence and presence of each amino acid (5 mM). Cells overexpressing PRODH, P5CS, and P5CR were incubated with H2O2 (0.5 mM) for 3 h at 37° C. after 24 h of transfection. Mild oxidative stress treatment was performed by treating HEK 293 cells with 20 μM H2O2 for 0-24 h at 37° C. […] Percent cell survival was estimated by counting live and dead cells using the 3-(4,5-dimethylthiazol-2-yl)-2,5-diphenyltetrazolium bromide (MTT) assay according to the recommendations of the manufacturer (Promega).

P5CS = P5CS (Homo sapiens, UniProt P54886); conditions: read-out: Km for P5CS activity; extracts of HEK 293 cells overexpressing P5CS, substrate glutamate
Procedure: (§1) P5CS activity was measured in a reaction mixture of 50 mM Tris-HCl (pH 7.0), 0-50 mM glutamate, […], 10 mM ATP, and 0.2 mM NADPH and by monitoring the oxidation of NADPH at 340 nm. P5CR activity in the cell lysate was also determined by monitoring the oxidation of NADPH at 340 nm as described in Merrill, M. J., Yeh, G. C., and Phang, J. M. (1989) J. Biol. Chem. 264, 9352-9358, which reference is incorporated herein by reference in its entirety. Background rates for each of the above assays were determined from assays using lysates of HEK 293 cells transfected with the pcDNA3.1 vector alone. Km values for each enzyme activity were estimated by varying the concentration of the substrates and non-linear regression analysis of the initial velocity vs substrate concentration.

HEK 293 cells [2] = conditions: H2O2 1 mM, proline 5 mM; H2O2 alone 55%, no stress 6%
Procedure: Intracellular ROS levels in HEK 293 cells were evaluated before and after H2O2 treatment by incubating PBS washed cells for 10 min with dichlorodihydrofluorescein diacetate (DCHF-DA) (20 μM) (Molecular Probes).
Quantitative ROS measurements were performed using flow cytometry. After oxidative stress treatment as described above, cells (5×10^5) were washed with PBS and incubated with DCHF-DA (0.1 mM) for 15 min in the dark at room temperature. Cells were then washed twice with PBS to remove excess DCHF-DA and resuspended in PBS containing 10 mM EDTA. The cells were then analyzed using FACScan flow cytometry (Becton-Dickinson, San Jose, Calif.). The mean fluorescence channel of each sample was calculated using FACS-equipped […] ® software and is reported as the percent fluorescence observed in the live cell population. In each assay, matching cells not treated with DCHF-DA served as a control.

HEK 293 cells [3] = conditions: H2O2 1 mM for 3 and 6 h, 5 mM proline
Procedure: The cell pellets were resuspended in 0.4 ml of 100 mM Tris-HCl (pH 8.5) containing 0.2% SDS, 0.2 mg/ml proteinase K and 5 mM EDTA. The cells were then incubated at 37° C. for 16 h. NaCl was next added to the cell suspension at a final concentration of 1.5 M and the nuclear debris was removed by centrifugation at room temperature. The nucleic acids in the supernatant were then precipitated using established protocols. DNA samples were analyzed by non-denaturing agarose gel electrophoresis (1.5%) and visualized by ethidium bromide staining.

P5CR = P5CR (Homo sapiens, UniProt Q96C36); conditions: read-out: Km for P5CR activity; extracts of HEK 293 cells overexpressing P5CR, substrate P5C
Procedure: as §1

[4] = substrate: O=C(O)[C@@H]1CCCN1; assay: cells, lysate or membranes named; conditions: other: extracts of HEK 293 cells overexpressing PRODH, substrate proline; pH 7.0
[5] = HEK293, amino acid supplement 5 mM, 0.5 mM H2O2 for 3 h at 37° C., MTT, no supplement 39, control without H2O2 97
[6] = HEK293, 3 h, amino acid supplement 5 mM, 0.5 mM H2O2 for 3 h at 37° C., MTT, no supplement 39, control without H2O2 97

P5CR, sequence (Q96C36 whole entry): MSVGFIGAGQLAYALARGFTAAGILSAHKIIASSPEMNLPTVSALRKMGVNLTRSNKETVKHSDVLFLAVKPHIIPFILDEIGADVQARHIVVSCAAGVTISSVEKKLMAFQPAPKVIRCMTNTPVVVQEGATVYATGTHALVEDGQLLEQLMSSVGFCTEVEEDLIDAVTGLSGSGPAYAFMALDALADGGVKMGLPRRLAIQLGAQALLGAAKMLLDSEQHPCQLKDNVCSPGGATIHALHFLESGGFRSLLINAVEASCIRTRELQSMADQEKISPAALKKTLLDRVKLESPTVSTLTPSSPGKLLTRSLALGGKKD
P5CS, sequence (P54886 1-793 isoform P54886-2): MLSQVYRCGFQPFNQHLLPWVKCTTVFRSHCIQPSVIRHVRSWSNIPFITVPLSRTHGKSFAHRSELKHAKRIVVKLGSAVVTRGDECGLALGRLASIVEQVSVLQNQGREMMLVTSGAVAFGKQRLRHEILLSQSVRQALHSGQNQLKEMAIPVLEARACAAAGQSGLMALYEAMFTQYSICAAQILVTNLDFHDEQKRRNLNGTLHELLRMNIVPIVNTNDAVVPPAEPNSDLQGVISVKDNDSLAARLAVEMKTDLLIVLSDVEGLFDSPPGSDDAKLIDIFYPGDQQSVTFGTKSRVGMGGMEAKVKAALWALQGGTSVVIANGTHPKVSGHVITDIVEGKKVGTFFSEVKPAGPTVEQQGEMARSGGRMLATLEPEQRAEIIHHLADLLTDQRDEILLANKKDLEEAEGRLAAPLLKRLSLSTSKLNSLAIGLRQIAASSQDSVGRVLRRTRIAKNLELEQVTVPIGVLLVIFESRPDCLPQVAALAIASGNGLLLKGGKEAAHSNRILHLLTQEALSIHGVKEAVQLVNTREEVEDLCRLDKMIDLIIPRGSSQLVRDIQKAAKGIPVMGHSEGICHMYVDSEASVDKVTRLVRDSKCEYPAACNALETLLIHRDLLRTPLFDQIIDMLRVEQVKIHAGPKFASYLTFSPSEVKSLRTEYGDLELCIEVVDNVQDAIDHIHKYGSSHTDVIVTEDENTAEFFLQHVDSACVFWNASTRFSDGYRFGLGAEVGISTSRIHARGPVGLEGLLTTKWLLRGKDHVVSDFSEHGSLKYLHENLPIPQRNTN

For `NC(=O)CC[C@H](N)C(=O)O` [glutamine, reference compound], the viability at 5000 µM (HEK 293 cells [1]; [5]) was 49%.

With `NC(=O)C[C@H](N)C(=O)O` [asparagine, reference compound] the viability at 5000 µM (HEK 293 cells [1]; [5]) was 48%.

`N=C(N)NCCC[C@H](N)C(=O)O` [arginine, reference compound] showed a viability at 5000 µM (HEK 293 cells [1]; HEK293, 3 h) of 50%.

With `N[C@@H](CO)C(=O)O` [serine] the viability at 5000 µM (HEK 293 cells [1]; [5]) was 58%.

For `N[C@@H](Cc1ccccc1)C(=O)O` [phenylalanine], the viability at 5000 µM (HEK 293 cells [1]; [5]) was 51%.

For `CSCC[C@H](N)C(=O)O` [methionine], the viability at 5000 µM (HEK 293 cells [1]; [6]) was 57% and the “protection of cell survival against H2O2 exposure (in words)” value (“protection of cell survival” below) (HEK 293 cells [1]; amino acid supplement 5 mM) was “protection against H2O2 exposure”.

For `NCC(=O)O` [glycine, reference compound], the viability at 5000 µM (HEK 293 cells [1]; [6]) was 33%.

For `CC(C)[C@H](N)C(=O)O` [valine, reference compound], the viability at 5000 µM (HEK 293 cells [1]; [5]) was 44%.

In the case of `C[C@@H](O)[C@H](N)C(=O)O` [threonine], the viability at 5000 µM (HEK 293 cells [1]; [5]) is reported as 59% and the “protection of cell survival” value (HEK 293 cells [1]; amino acid supplement 5 mM) is reported as “protection against H2O2 exposure”.

For `N[C@@H](CCC(=O)O)C(=O)O` [glutamate, reference compound], the “Cell Survival (%)” value (HEK 293 cells [1]; amino acid supplement 5 mM, 0.5 mM H2O2 for 3 h at 37° C., MTT, no supplement 39, control without H2O2 97) was 35% and the Km (P5CS) was roughly 20 mM.

`N[C@@H](CS)C(=O)O` [cysteine] was tested, and the viability at 5000 µM (HEK 293 cells [1]; HEK293, 3 h) was 68% and the “protection of cell survival” value (HEK 293 cells [1]; amino acid supplement 5 mM) was “increase cell survival to almost the same level as proline”.

With `O=C(O)[C@@H]1CCCN1` [proline] the viability at 5000 µM (HEK 293 cells [1]; [6]) was roughly 77%, the “cell fluorescence levels (fluorescent positives, indicative of ROS)” value (HEK 293 cells [2]) was 10% and the “DNA laddering induced by H2O2” value (HEK 293 cells [3]) was “lack of DNA laddering”.

With `O=C(O)C1CCC=N1` (stereo not drawn) [P5C] the Km (P5CR) was 15 mM.

`C[C@H](N)C(=O)O` [alanine, reference compound] was tested, and the viability at 5000 µM (HEK 293 cells [1]; [5]) was 48%.

With `CC(C)C[C@H](N)C(=O)O` [leucine, reference compound] the viability at 5000 µM (HEK 293 cells [1]; [5]) was 43%.

In the case of `CC[C@H](C)[C@H](N)C(=O)O` [isoleucine, reference compound], the viability at 5000 µM (HEK 293 cells [1]; [5]) is reported as 42%.

In the case of `N[C@@H](Cc1c[nH]c2ccccc12)C(=O)O` [tryptophan], the viability at 5000 µM (HEK 293 cells [1]; HEK293, 3 h) is reported as 66% and the “protection of cell survival” value (HEK 293 cells [1]; amino acid supplement 5 mM) is reported as “increase cell survival to almost the same level as proline”.

In the case of `NCCCC[C@H](N)C(=O)O` [lysine], the viability at 5000 µM (HEK 293 cells [1]; HEK293, 3 h) is reported as 54%.

In the case of `N[C@@H](Cc1c[nH]cn1)C(=O)O` [histidine], the viability at 5000 µM (HEK 293 cells [1]; [5]) is reported as 58% and the “protection of cell survival” value (HEK 293 cells [1]; amino acid supplement 5 mM) is reported as “protection against H2O2 exposure”.

Work on `N[C@@H](CC(=O)O)C(=O)O` [aspartate, reference compound] yielded a viability at 5000 µM (HEK 293 cells [1]; [5]) of 35%.

For `N[C@@H](Cc1ccc(O)cc1)C(=O)O` [tyrosine, reference compound], the viability at 5000 µM (HEK 293 cells [1]; [5]) was 41%.

B1: PRODH (Homo sapiens) (protein)
chain: MALRRALPALRPCIPRFVPLSTAPASREQPAAGPAAVPGGGSATAVRPPVPAVDFGNAQEAYRSRRTWELARSLLVLRLCAWPALLARHEQLLYVSRKLLGQRLFNKLMKMTFYGHFVAGEDQESIQPLLRHYRAFGVSAILDYGVEEDLSPEEAEHKEMESCTSAAERDGSGTNKRDKQYQAHWAFGDRRNGVISARTYFYANEAKCDSHMETFLRCIEASGRVSDDGFIAIKLTALGRPQFLLQFSEVLAKWRCFFHQMAVEQGQAGLAAMDTKLEVAVLQESVAKLGIASRAEIEDWFTAETLGVSGTMDLLDWSSLIDSRTKLSKHLVVPNAQTGQLEPLLSRFTEEEELQMTRMLQRMDVLAKKATEMGVRLMVDAEQTYFQPAISRLTLEMQRKFNVEKPLIFNTYQCYLKDAYDNVTLDVELARREGWCFGAKLVRGAYLAQERARAAEIGYEDPINPTYEATNAMYHRCLDYVLEELKHNAKAKVMVASHNEDTVRFALRRMEELGLHPADHRVYFGQLLGMCDQISFPLGQAGYPVYKYVPYGPVMEVLPYLSRRALENSSLMKGTHRERQLLWLELLRRLRTGNLFHRPA
Molecule B1 has a Km [4] of 14 ± 0.5 mM.
